Laboratory results: ChEMBL document CHEMBL1201862, “PubChem BioAssay data set” (2004)
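All cell lines were grown in 96-well plates and treated with compound for 48 hours. GI50 is the concentration that inhibits growth by half.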 Activity calls are given as the source filed them. Rule as the data show it: active = GI50 up to about 1.1 µM and inactive = higher.

Key:
Experiment in all cases: NCI-60 cell line screen, 48 h
HT-29 = test system: HT-29
DU-145 = test system: DU-145
HL-60 = test system: HL-60
SK-MEL-5 = test system: SK-MEL-5
RPMI-8226 = test system: RPMI-8226
OVCAR-8 = test system: OVCAR-8
UO-31 = test system: UO-31
SNB-75 = test system: SNB-75
M14 = test system: M14
Hs-578T = test system: Hs-578T
SR = test system: SR
ACHN = test system: ACHN
NCI-H522 = test system: NCI-H522
UACC-62 = test system: UACC-62
HCT-116 = test system: HCT-116
HOP-62 = test system: HOP-62
SK-OV-3 = test system: SK-OV-3
SN12C = test system: SN12C
NCI-H226 = test system: NCI-H226
MCF7 = test system: MCF7

Measured: GI50

O=C(Nn1c(-c2ccccc2)nc2ccccc2c1=O)c1ccccn1
inactive: HT-29 65.3 µM | DU-145 > 100 µM | HL-60 71.4 µM | SK-MEL-5 37.7 µM | RPMI-8226 > 100 µM | OVCAR-8 64.4 µM | UO-31 > 100 µM | SNB-75 42.1 µM | M14 > 100 µM | Hs-578T 27.5 µM | SR > 100 µM | ACHN > 100 µM | NCI-H522 72.8 µM | UACC-62 42.3 µM | HCT-116 57.4 µM | HOP-62 > 100 µM | SK-OV-3 > 100 µM | SN12C > 100 µM

CC12CCC(=O)C[C@H]1CCC(OC=O)C2Br (some centres not stated)
inactive: HT-29 > 100 µM | NCI-H226 > 100 µM | HL-60 > 100 µM | SK-MEL-5 > 100 µM | RPMI-8226 > 100 µM | OVCAR-8 > 100 µM | UO-31 > 100 µM | SNB-75 > 100 µM | M14 > 100 µM | SR > 100 µM | ACHN > 100 µM | NCI-H522 > 100 µM | UACC-62 > 100 µM | HCT-116 > 100 µM | HOP-62 > 100 µM | SK-OV-3 > 100 µM | SN12C > 100 µM

O=C1C(Cl)C(c2ccccc2O)N1n1cnc2ccccc2c1=O (configuration not stated)
inactive: HT-29 87.3 µM | NCI-H226 62.2 µM | HL-60 13 µM | SK-MEL-5 56.2 µM | RPMI-8226 6.75 µM | OVCAR-8 92.7 µM | UO-31 50 µM | SNB-75 20.4 µM | M14 80.2 µM | SR 27.4 µM | ACHN 39.4 µM | NCI-H522 23.6 µM | UACC-62 44.3 µM | HCT-116 64.3 µM | HOP-62 48.5 µM | SK-OV-3 25.1 µM | SN12C 7.08 µM

CCc1n[nH]c(=O)n1CCCCCCCCn1c(CC)n[nH]c1=O
inactive: HT-29 > 100 µM | NCI-H226 > 100 µM | SK-MEL-5 > 100 µM | RPMI-8226 > 100 µM | OVCAR-8 > 100 µM | UO-31 > 100 µM | SNB-75 > 100 µM | M14 > 100 µM | Hs-578T > 100 µM | SR > 100 µM | ACHN > 100 µM | NCI-H522 > 100 µM | UACC-62 > 100 µM | HCT-116 > 100 µM | HOP-62 > 100 µM | SK-OV-3 > 100 µM | SN12C > 100 µM | MCF7 > 100 µM

N#CC(c1ccccn1)c1nc2ccccc2[nH]1 (configuration not stated)
inactive: HT-29 > 100 µM | NCI-H226 > 100 µM | HL-60 32.3 µM | SK-MEL-5 > 100 µM | RPMI-8226 54 µM | OVCAR-8 84.5 µM | UO-31 > 100 µM | SNB-75 49.3 µM | M14 > 100 µM | SR 38.5 µM | ACHN > 100 µM | NCI-H522 > 100 µM | UACC-62 70.3 µM | HCT-116 98.4 µM | HOP-62 > 100 µM | SK-OV-3 > 100 µM | SN12C > 100 µM

Cc1ccccc1NC(=O)/C(=N\NC(N)=S)C(C#N)c1ccccc1 (configuration not stated)
inactive: HT-29 > 100 µM | NCI-H226 > 100 µM | HL-60 > 100 µM | SK-MEL-5 > 100 µM | RPMI-8226 > 100 µM | OVCAR-8 > 100 µM | UO-31 > 100 µM | SNB-75 > 100 µM | M14 > 100 µM | SR > 100 µM | ACHN > 100 µM | NCI-H522 > 100 µM | UACC-62 > 100 µM | HCT-116 > 100 µM | HOP-62 > 100 µM | SK-OV-3 > 100 µM | SN12C > 100 µM

CCn1c(=O)c2nc(SC)sc2n(-c2ccccc2)c1=O
inactive: HT-29 > 100 µM | NCI-H226 > 100 µM | DU-145 > 100 µM | HL-60 > 100 µM | SK-MEL-5 > 100 µM | RPMI-8226 > 100 µM | OVCAR-8 > 100 µM | UO-31 26 µM | SNB-75 > 100 µM | M14 > 100 µM | SR > 100 µM | ACHN > 100 µM | NCI-H522 > 100 µM | HCT-116 > 100 µM | HOP-62 > 100 µM | SK-OV-3 > 100 µM | SN12C > 100 µM | MCF7 > 100 µM

ClCc1ccc(C2OCCO2)cc1
inactive: HT-29 15.9 µM | NCI-H226 16.9 µM | HL-60 3.36 µM | SK-MEL-5 24.8 µM | RPMI-8226 21.4 µM | OVCAR-8 17.5 µM | UO-31 > 40.7 µM | SNB-75 22.4 µM | M14 13.6 µM | SR 11.1 µM | ACHN > 42.4 µM | NCI-H522 14.8 µM | UACC-62 > 36.6 µM | HCT-116 > 35.6 µM | HOP-62 24.9 µM | SK-OV-3 46.9 µM | SN12C 16.6 µM

Cc1ccc(-c2cc(O)c3cc4c(cc3n2)OCO4)cc1
inactive: HT-29 2.18 µM | NCI-H226 1.63 µM | RPMI-8226 2.13 µM | OVCAR-8 3.2 µM | UO-31 > 21.3 µM | SNB-75 1.37 µM | ACHN 7.67 µM | NCI-H522 1.63 µM | HCT-116 1.24 µM | HOP-62 2.25 µM | SK-OV-3 1.45 µM | SN12C 2.56 µM
active: HL-60 0.43 µM | SK-MEL-5 0.35 µM | M14 0.817 µM | SR 0.973 µM | UACC-62 0.729 µM

CCOC(=O)c1ccc(-c2cc(C)no2)[nH]1
inactive: HT-29 > 100 µM | NCI-H226 > 100 µM | DU-145 > 100 µM | HL-60 67.5 µM | SK-MEL-5 81.3 µM | RPMI-8226 > 100 µM | OVCAR-8 > 100 µM | UO-31 > 100 µM | SNB-75 60.1 µM | M14 > 100 µM | ACHN > 100 µM | NCI-H522 76.2 µM | UACC-62 59.8 µM | HCT-116 75.3 µM | SK-OV-3 > 100 µM | SN12C 33 µM

COc1cc2c(cc1OC)[C@@H]([C@H](O)c1ccccc1)NCC2
inactive: HT-29 > 100 µM | NCI-H226 > 100 µM | HL-60 > 100 µM | SK-MEL-5 > 100 µM | RPMI-8226 > 100 µM | OVCAR-8 > 100 µM | UO-31 > 92.7 µM | SNB-75 55 µM | M14 > 100 µM | SR > 100 µM | ACHN > 100 µM | NCI-H522 > 100 µM | UACC-62 > 100 µM | HCT-116 > 100 µM | HOP-62 > 100 µM | SK-OV-3 > 82.6 µM | SN12C > 100 µM

COC(=O)C(=O)C(C(=O)C(=O)Nc1ccc(C)cc1C)c1nc2ccccc2nc1O (configuration not stated)
inactive: HT-29 > 100 µM | NCI-H226 37.4 µM | HL-60 41.8 µM | SK-MEL-5 58.1 µM | RPMI-8226 35 µM | OVCAR-8 37.7 µM | UO-31 30.9 µM | SNB-75 15 µM | M14 54.8 µM | SR 35.8 µM | ACHN 50 µM | NCI-H522 25 µM | UACC-62 37.1 µM | HCT-116 63 µM | HOP-62 39.4 µM | SK-OV-3 40.1 µM | SN12C 41.6 µM

Cn1c(C(C#N)c2cc(Cl)ncn2)nc2ccccc21 (configuration not stated)
inactive: HT-29 > 100 µM | NCI-H226 > 100 µM | DU-145 > 100 µM | SK-MEL-5 > 100 µM | RPMI-8226 > 100 µM | OVCAR-8 > 100 µM | UO-31 > 100 µM | SNB-75 > 100 µM | M14 > 100 µM | ACHN > 100 µM | NCI-H522 > 100 µM | HCT-116 > 100 µM | HOP-62 > 100 µM | SK-OV-3 > 100 µM | SN12C > 100 µM

Cc1ccccc1NC(=O)/C=N/O
active: HL-60 0.429 µM
inactive: HT-29 > 100 µM | NCI-H226 > 100 µM | SK-MEL-5 > 100 µM | RPMI-8226 > 100 µM | OVCAR-8 > 100 µM | UO-31 > 100 µM | SNB-75 > 100 µM | M14 > 100 µM | SR > 100 µM | ACHN > 100 µM | NCI-H522 > 100 µM | UACC-62 14.6 µM | HCT-116 > 100 µM | HOP-62 > 100 µM | SK-OV-3 > 100 µM | SN12C > 100 µM

CCC[C@H]1C(=O)N=C(N)N1C(=O)OCc1ccccc1
inactive: HT-29 > 100 µM | NCI-H226 > 100 µM | HL-60 > 100 µM | SK-MEL-5 > 100 µM | RPMI-8226 > 100 µM | OVCAR-8 > 100 µM | UO-31 86.9 µM | SNB-75 > 100 µM | Hs-578T > 100 µM | SR > 100 µM | ACHN > 100 µM | NCI-H522 > 100 µM | UACC-62 > 100 µM | HCT-116 > 100 µM | HOP-62 > 100 µM | SN12C > 100 µM | MCF7 > 100 µM

COc1ccc(C2CC(=O)CC(c3ccc(OC)cc3)C23C(=O)NC(=O)NC3=O)cc1 (configuration not stated)
inactive: HT-29 33.2 µM | NCI-H226 35.2 µM | DU-145 48 µM | HL-60 27 µM | SK-MEL-5 25 µM | OVCAR-8 32.2 µM | UO-31 31.6 µM | SNB-75 25.8 µM | M14 52.5 µM | SR 30.4 µM | ACHN 31.3 µM | NCI-H522 23.3 µM | UACC-62 64.1 µM | HCT-116 27.4 µM | HOP-62 13.8 µM | SN12C 46.8 µM | MCF7 25.1 µM
